Measured values reported in patent publication US20250361217A1, “FATTY ACID COMPOUNDS” (University of Pittsburgh - Of the Commonwealth System of …, priority 2022, published 2025).

How the values were obtained:
[1] = system: HFD model in C57BL/6J mice; assay: Plasma insulin, metabolic hormones, AST/ALT, TNF-α in HFD mice; type: in vivo
Source text: Male C57BL/6J mice were purchased from Jackson Laboratory (Bar Harbor, ME, USA). Mice were acclimated for a week before being randomized to receive either a low-fat diet (LFD) or a high-fat diet (HFD) purchased from Research Diets (New Brunswick, NJ, USA). Obesity was induced by the HFD (D12492, with 60% of the adjusted calories derived from fat) for 16 weeks beginning at age of 8 weeks. Age-matched controls were maintained on a LFD (D12450J, matching the sucrose level of D12492). While maintaining the diet, mice under HFD were divided into 4 groups (n=8 per group) and were treated every 2 days by oral gavage for 7 weeks with 100 μl of 11D3 (50 mg/kg), 11U3 (50 mg/kg), or 11U3-2M (50 mg/kg) formulated in a solution of 2:1 of polyethylene glycol (Fisher Scientific, PEG400 #p167-1) and saline, containing 1.5% of octanoic acid (TCI, #00027). Control groups received 100 μl of PEG400/saline/octanoic acid as the vehicle (Veh). LFD mice were divided into 2 groups (n=8 per group) and treated with veh or 11D3 (50 mg/kg) to detect any effect of natural FuFA in LFD. Mice were grouped to start at the same weight mean before starting the treatment. During and before gavage treatment, mice were fed ad libitum and given free access to water. Food intake, water consumption, and mouse weight were monitored every week. At 20 weeks (4 weeks of treatment), a glucose tolerance test (GTT) was performed on all cohorts. After 2 weeks of recovery (22 weeks), a whole-body composition was performed using EchoMRI™-100H. At the end of the 23 weeks study, mice were euthanized with isoflurane followed by laparotomy. The blood was collected, and mice were perfused using 0.9% NaCl. Organs were harvested and snap-frozen in liquid nitrogen gas and stored at −80° C. for further analysis. The Cellerusher (Cell Crusher, Schull, Ireland) tissue pulverizer was used to reduce frozen tissues to a fine, easily recoverable powder using dry ice. For immunohistochemistry, the same liver lobe for every mouse was fixed in Formalin 10% (Fisher Chemical, #SF98-4) for 48h, followed by 75% ethanol baths before paraffin embedding.
After collection, red blood cells and plasma were separated by centrifugation for 5 min at 7500 g at 4° C., aliquoted, and stored at −80° C. Insulin levels were measured by ELISA (Invitrogen, #EMINS) using 50 μl of plasma as per the manufacturer's instructions. Aspartate aminotransferase (AST) and alanine aminotransferase (ALT) levels were both measured using 5 μl of plasma with ELISA (Abcam, #ab263882 and #ab282882, respectively). Metabolic hormones were determined using Luminex xMAP technology (Milliplex mouse metabolic hormone expanded panel #MMHE-44K, Millipore, Burlington, MA, USA). The multiplex metabolic hormones plate was measured as per the manufacturer's instructions.

liver mitochondria = assay: Citrate synthase activity and Oroboros analysis of liver mitochondria flux; type: in vivo, mice; settings: for increase in citrate synthase activity (CSA) vs veh: 50 mg/kg, 11 weeks
Source text: A second cohort of mice was set up to confirm the effect of 11U3-2M on mitochondria and fatty acid (FA) β-oxidation using Oroboros analysis in the HFD but also in LFD models. Male C57BL/6J diet-induced obesity (C57BL/6J DIO, #380050) and male C57BL/6J diet-induced obesity control mice (C57BL/6J DIO Control, #380056) were purchased from Jackson Laboratory (Bar Harbor, ME, USA) at 15 weeks of age. Mice were continuously feeding either HFD or LFD during transport and upon reception. Mice were fed for 4 more weeks before starting the treatment. While continuing the HFD (n=8 per group) or LFD (n=8 per group), mice were treated with the same formulation as the first cohort using only 11U3-2M (50 mg/kg) or veh for 11 weeks. Mice were fasted for 5 h and received a single intraperitoneal injection of 50 μl of D31-palmitic acid (Cambridge Isotope, 3 μM, #dlm-215-1) in PEG400/Saline (2:1) and 1.5% of octanoic acid solution 2h before sacrifice in order to study FA metabolism. Blood and tissues were harvested and stored as described above.

[2] = set-up: species or system mice; settings: mouse, in vivo
Procedure: Male C57BL/6J (12 weeks old) mice were used to measure the absorption and metabolism of FuFA. In this procedure, I1D3 (50 mg/kg), I 1U3 (50 mg/kg), I1U3-2M (50 mg/kg) and D31-palmitic acid (10 mg/kg) were administered simultaneously (cassette dosing) to single animal. Consequently, the relative pharmacokinetics of multiple compounds can be assessed rapidly with a small number of experimental animals. The compounds were injected either intraperitoneally (n=5) or by gavage (n=5). At 1, 2 and 4h after injection, a small incision on the tail vein was performed and microhematocrit capillary tubes (FisherBrand, #22-362566) were used to collect serial blood samples ([…] per collection). At 6h, mice were anesthetized, and blood was collected from the vena cava in a terminal blood draw. Blood samples were processed as described above to collect plasma. The pharmacokinetics (PK) of free FuFAs and D31-palmitic acid and their esters found in complex lipids were evaluated using 10 μl of plasma. Briefly, 20 μl of water were added to the […] of plasma and divided into 2 glass tubes. The sample in one tube was measured as is using GC-MS upon derivatization and the other sample was hydrolyzed before derivatization and quantification. […] For the total FA quantification, basic hydrolysis was performed using 500 μl of 1M KOH in MeOH and incubated for 1 h at 60° C. […]

**Q.** For CCCc1ccc(CCCCCCCCCC(C)(C)C(=O)O)o1 [11U3-2M, 2,2-Dimethyl-11-(5-propylfuran-2-yl)undecanoic acid], which “lower insulin plasma level compared to veh (ELISA)” value ([1]; 50 mg/kg) is on record?
**A.** Its value is 68%.

**Q.** What about the “plasma level of AST” value ([1]; 50 mg/kg) of the same compound?
**A.** Its value is “significant reduction”.

**Q.** What about the “plasma level of TNF-α” value ([1]; 50 mg/kg) of the same compound?
**A.** The value was “significant reduction”.

**Q.** What about the “lower plasma C-peptide 2 compared to veh” value ([1]; 50 mg/kg, milliplex) of the same compound?
**A.** Its value is 43%.

**Q.** And the “lower plasma gastric inhibitory polypeptide (GIP) compared to veh” value ([1]; 50 mg/kg, milliplex)?
**A.** Its value is 36%.

**Q.** What about the “liver enzyme ALT” value ([1]; FIG. 3D legend) of the same compound?
**A.** Its value is “improving liver enzymes (AST and ALT)”.

**Q.** What about the “increase of flux after addition of glutamate, ratio to CSA, vs veh” value (liver mitochondria; HFD mice) of the same compound?
**A.** The value was 34%.

**Q.** What about the “increase of flux normalized to CSA vs veh” value (liver mitochondria; HFD mice) of the same compound?
**A.** Its value is 38.3%.

**Q.** And the “increase in citrate synthase activity (CSA) vs veh” value (liver mitochondria; HFD mice)?
**A.** The value was 29%.

**Q.** What about the “flux after addition of succinate (maximum respiration), normalized by CSA” value (liver mitochondria; LFD and HFD mice) of the same compound?
**A.** Its value is “didn't show any significant difference”.

**Q.** And the “increase of flux after addition of glutamate, ratio to CSA, vs veh” value (liver mitochondria; LFD mice)?
**A.** The value was 23%.

**Q.** And the “increase of flux normalized to CSA vs veh” value (liver mitochondria; LFD mice)?
**A.** The value was 32.5%.

**Q.** And the “increase in citrate synthase activity (CSA) vs veh” value (liver mitochondria; LFD mice)?
**A.** The value was 27%.

**Q.** What about the “flux with pyruvate as the substrate” value (liver mitochondria; normalized to CSA) of the same compound?
**A.** The value was “No significant change”.

**Q.** What about the “mitochondria flux (Oroboros), not normalized” value (liver mitochondria; substrates palmitoylcarnitine and pyruvate) of the same compound?
**A.** The value was “significantly higher flux”.

**Q.** What about the absorption pathway [2] of the same compound?
**A.** The absorption pathway was “absorbed through the hepatic portal vein”.

**Q.** And the “oral stability (half-lives) compared with natural FuFAs” value ([2]; po, 50 mg/kg)?
**A.** The value was “longer half-lives”.
